Results on 23 molecules are retold here after patent US12060387B2, “Polypeptide-based shuttle agents for improving the transduction efficiency of polypeptide cargos to the cytosol of target eukaryotic cells, uses thereof, methods and kits relating to same” (priority 2015, dated 2024).

Data set [1] in a line: Cell toxicity / % cell viability by flow cytometry (cells in total events v. untreated). The format is cell-based, Human. To be noted: human, HeLa cells; for viability at 1 min, 20 µM: 1 minute; for viability at 1 h, 3.5 µM: antibody 0.5 μM, shuttle 3.5 μM, read-out: Cell viability (%) (± St. Dev.; n = 3), FIG. 19B. Background: Flow cytometry measures light scatter and fluorescence of single cells or particles in a stream.
Source text: (§1) The fluorescence of GFP was quantified using flow cytometry (Accuri C6, Becton, Dickinson and Company (BD)). Untreated cells were used to establish a baseline in order to quantify the increased fluorescence due to the internalization of the fluorescent protein in treated cells. The percentage of cells with a fluorescence signal above the maximum fluorescence of untreated cells, “mean %” or “Pos cells (%)”, is used to identify positive fluorescent cells. “Relative fluorescence intensity (FL1-A)” corresponds to the mean of all fluorescence intensities from each cell with a fluorescent signal after fluorescent protein delivery with the shuttle agent. Also, the events scanned by flow cytometry corresponding to cells (size and granularity) were analyzed. The cellular toxicity (% cell viability) was monitored comparing the percentage of cells in the total events scanned of treated cells comparatively to untreated cells.

The next data set has as its system HeLa cells. The description is as above. The format is cell-based, Human. To be noted: HeLa; Protocol B; shuttle 20 μM; GFP-NLS 5 μM; 1 minute.
Assay in data set [2]: as above
Source text: as §1
The format is cell-based, human. The following applies: human, THP-1 cells.

Where [3] appears, read: Cell viability (%) (±St. Dev.; n = 3), FIG. 29I, HeLa, Protocol B, shuttle 20 μM, GFP-NLS 5 μM, read-out: Cell viability (%) (±St. Dev.; n = 3), FIG. 29I.
The mark [4] stands for this setting: Cell viability (%) (±St. Dev.; n = 3), FIG. 29F, read-out: Cell viability (%) (±St. Dev.; n = 3), FIG. 29F.

Read-outs that look alike come from different tables or passages of the source. Where a SMILES comes first, the peptide text is derived from it. Bridges are numbered along the chain shown (N, C = ends). Roman numbers before positions name the chains, in order. Where no end group is shown, it is not given here.

Source text for HeLa cells: as §1

Broadly, the viability is a per cent measure of how many cells are alive, often set against a control. For the molecule `CC[C@H](C)[C@H](NC(=O)[C@@H](NC(=O)[C@H](Cc1ccccc1)NC(=O)[C@@H](N)CCCCN)[C@@H](C)O)C(=O)N[C@H](C(=O)N[C@@H](Cc1ccccc1)C(=O)N1CCC[C@H]1C(=O)N[C@@H](Cc1c[nH]cn1)C(=O)N[C@@H](CC(N)=O)C(=O)N[C@@H](CCC(N)=O)C(=O)N[C@@H](CCCCN)C(=O)NCC(=O)N[C@@H](CC(N)=O)C(=O)N[C@@H](Cc1c[nH]c2ccccc12)C(=O)N[C@@H](CCCCN)C(=O)N[C@@H](CC(N)=O)C(=O)N[C@H](C(=O)N1CCC[C@H]1C(=O)N[C@@H](CO)C(=O)N[C@@H](CC(N)=O)C(=O)N[C@@H](Cc1ccc(O)cc1)C(=O)N[C@@H](Cc1c[nH]cn1)C(=O)N[C@@H](Cc1ccc(O)cc1)C(=O)N[C@@H](CS)C(=O)N1CCC[C@H]1C(=O)N[C@@H](Cc1ccc(O)cc1)C(=O)N[C@@H](C)C(=O)N[C@@H](CCCNC(=N)N)C(=O)N[C@@H](C)C(=O)N[C@@H](C)C(=O)N[C@@H](C)C(=O)N[C@@H](CCCNC(=N)N)C(=O)N[C@@H](CCC(N)=O)C(=O)N[C@@H](C)C(=O)N[C@@H](CCCNC(=N)N)C(=O)N[C@@H](C)C(=O)O)C(C)C)C(C)C` [VSVG-PTD4], the viability at 10 s, 50 µM in data set [1] (HeLa, Protocol B, shuttle 50 μM, GFP-NLS 5 μM, 10 seconds, read-out: Cell viability (%) (±St. Dev.; n = 3), FIG. 29E) was determined as 100%. Take “HHHAHHHKWKLFKKIGAVLKVLTTGYARAAARQARA [HA-CM18-PTD4]”: the viability at 1 min, 20 µM in data set [1] (setting [3]) was found to be 68.3 ± 4.1%.

With “KWKLFKKIGAVLKVLTTGYARAAARQARA [CM18-PTD4]”, the viability at 1 min, 20 µM in data set [1] (cell viability, HeLa, GFP-NLS 5 μM with 20 μM shuttle, Protocol B, Table 10.3e, read-out: cell viability) amounted to 33.9%. For the same molecule, in the data set on HeLa cells, the “Cell viability (%) (±St. Dev.; n = 3), FIG. 29I” value is listed as 33.9 ± 3.7%. In the case of “LIRLWSHLIHIWFQNRRLKWKKKYARAAARQARA [EB1-PTD4]”, in data set [1], the viability at 10 s, 50 µM was found to be 39 ± 5.6%; the viability at 1 min, 10 µM stood at 61.7 ± 2.7%; the viability at 2 min, 10 µM was 56.6 ± 3.2%; the viability at 5 min, 10 µM was 55.8 ± 4.4%. For “HHHHHHKWKLFKKIGAVLKVLTTGYARAAARQARAHHHHHH [His-CM18-PTD4-His]”, in data set [1] (Cell viability (%) (±St. Dev.; n = 3), FIG. 29G, HeLa, Protocol B, shuttle 10 μM, GFP-NLS 5 μM, incubation 1 min, read-out: Cell viability (%) (±St. Dev.; n = 3), FIG. 29G), the viability at 1 min, 10 µM came out at 68.1 ± 2.7%. For the same molecule, in data set [1] (Cell viability (%) (±St. Dev.; n = 3), FIG. 29G, HeLa, Protocol B, shuttle 10 μM, GFP-NLS 5 μM, incubation 2 min, read-out: Cell viability (%) (±St. Dev.; n = 3), FIG. 29G), the viability at 2 min, 10 µM worked out at 61.6 ± 3.2%. Further, the viability at 5 min, 10 µM in data set [1] (Cell viability (%) (±St. Dev.; n = 3), FIG. 29G, HeLa, Protocol B, shuttle 10 μM, GFP-NLS 5 μM, incubation 5 min, read-out: Cell viability (%) (±St. Dev.; n = 3), FIG. 29G) worked out at 41.2 ± 4.4%. Moreover, in data set [1] (setting [3]), the viability at 1 min, 20 µM was determined as 78.6 ± 1.1%. In the case of “KWKLFKKIGAVLKVLTTG [CM18, reference compound]”, the viability at 10 s, 50 µM in data set [1] (Cell viability (%) (±St. Dev.; n = 3), FIG. 29D, HeLa, Protocol B, peptide 50 μM, GFP-NLS 5 μM, 10 seconds, read-out: Cell viability (%) (±St. Dev.; n = 3), FIG. 29D) stood at 95 ± 1.2%. In data set [1], “HHHHHHYARAAARQARA [His-PTD4, reference compound]” displayed a viability at 10 s, 50 µM of 96.5 ± 0.28%. Consider “MHHHHHHKWKLFKKIGAVLKVLTTGYGRKKRRQRRRC [Met-His-CM18-TAT-Cys]”, for which, in data set [1] (Cell viability (%) (±St. Dev.; n = 3), FIG. 29E, HeLa, Protocol B, shuttle 50 μM, GFP-NLS 5 μM, 10 seconds, read-out: Cell viability (%) (±St. Dev.; n = 3), FIG. 29E), the viability at 10 s, 50 µM was found to be 41.4 ± 3.91%. Turning to `N=C(N)NCCC[C@H](NC(=O)CNC(=O)[C@@H](N)Cc1ccc(O)cc1)C(=O)N[C@@H](CCCCN)C(=O)N[C@@H](CCCCN)C(=O)N[C@@H](CCCNC(=N)N)C(=O)N[C@@H](CCCNC(=N)N)C(=O)N[C@@H](CCC(N)=O)C(=O)N[C@@H](CCCNC(=N)N)C(=O)N[C@@H](CCCNC(=N)N)C(=O)N[C@@H](CCCNC(=N)N)C(=O)N[C@@H](CS)C(=O)O` [TAT-Cys, reference compound], the viability at 10 s, 50 µM in data set [1] (HeLa, Protocol B, peptide 50 μM, GFP-NLS 5 μM, 10 seconds, read-out: Cell viability (%) (±St. Dev.; n = 3), FIG. 29D) is 94.6 ± 0.44%. “GLFEALLELLESLWELLLEAYARAAARQARA [JST-PTD4]”: the viability at 10 s, 50 µM in data set [1] (Cell viability (%) (±St. Dev.; n = 3), FIG. 29E, read-out: Cell viability (%) (±St. Dev.; n = 3), FIG. 29E) was determined as 98.9 ± 0.57%. Regarding `CC(C)C[C@H](NC(=O)[C@H](CC(C)C)NC(=O)[C@H](CCCCN)NC(=O)[C@H](CCCCN)NC(=O)[C@H](CC(C)C)NC(=O)[C@H](CC(C)C)NC(=O)[C@H](CCCCN)NC(=O)[C@H](CCCCN)NC(=O)[C@H](CC(C)C)NC(=O)[C@H](CC(C)C)NC(=O)[C@H](CS)NC(=O)[C@H](Cc1c[nH]cn1)NC(=O)[C@H](Cc1c[nH]cn1)NC(=O)[C@H](Cc1c[nH]cn1)NC(=O)[C@H](Cc1c[nH]cn1)NC(=O)[C@H](Cc1c[nH]cn1)NC(=O)[C@@H](N)Cc1c[nH]cn1)C(=O)N[C@@H](CCCCN)C(=O)N[C@@H](CCCCN)C(=O)N[C@@H](CS)C(=O)N[C@@H](Cc1ccc(O)cc1)C(=O)N[C@@H](C)C(=O)N[C@@H](CCCNC(=N)N)C(=O)N[C@@H](C)C(=O)N[C@@H](C)C(=O)N[C@@H](C)C(=O)N[C@@H](CCCNC(=N)N)C(=O)N[C@@H](CCC(N)=O)C(=O)N[C@@H](C)C(=O)N[C@@H](CCCNC(=N)N)C(=O)N[C@@H](C)C(=O)O` [His-C(LLKK)3C-PTD4] (H-HHHHHHCLLKKLLKKLLKKCYARAAARQARA-OH), in data set [1], the viability at 10 s, 50 µM was 95 ± 2.7%; the viability at 1 min, 10 µM came to 99.5 ± 2.7%; the viability at 2 min, 10 µM is 94.3 ± 3.2%; the viability at 5 min, 10 µM is 80.8 ± 4.4%. Further, in data set [2], the viability at 15 s, 1 µM is 85.2 ± 2.8%; the viability at 0.5 min, 1 µM is 86 ± 2%; the viability at 1 min, 1 µM is 86.9 ± 3.8%; the viability at 2 min, 1 µM was found to be 79.6 ± 2.8%. In data set [2], this molecule displayed a viability at 24 h, 0.8 µM of 97.2 ± 2.2% and a viability at 72 h, 0.8 µM of 76.6 ± 3.4%. Turning to “RRLSYSRRRFWEAKLAKALAKALAKHLAKALAKALKACEA [SynB3-KALA]”, the viability at 10 s, 50 µM in data set [1] (setting [4]) came out at 91.1 ± 0.82%. For “RRRRRRRRRWEAKLAKALAKALAKHLAKALAKALKACEA [9Arg-KALA]”, the viability at 10 s, 50 µM in data set [1] (setting [4]) was 62.8 ± 5.11%. In the case of “HHHKWKLFKKIGAVLKVLTTGYARAAARQARA [3His-CM18-PTD4]”, the viability at 1 min, 20 µM in data set [1] (setting [3]) amounted to 39.2 ± 3.3%. “KWKLFKKIGAVLKVLTTGRQIKIWFQNRRMKWKKC [CM18-Penetratin-Cys]”: the viability at 1 h, 3.5 µM in data set [1] (HeLa) came to 73 ± 9.5%.

“WEAKLAKALAKALAKHLAKALAKALKACEA [KALA, reference compound]” came in with a viability at 10 s, 50 µM in data set [1] of 84 ± 0.7%. Consider YARAAARQARA [PTD4, reference compound], for which, in data set [1] (Cell viability (%) (±St. Dev.; n = 3), FIG. 29D, read-out: Cell viability (%) (±St. Dev.; n = 3), FIG. 29D), the viability at 10 s, 50 µM was determined as 94 ± 4.5%. Regarding “HHHHHHHHHHHHKWKLFKKIGAVLKVLTTGYARAAARQARA [12His-CM18-PTD4]”, in data set [1] (setting [3]), the viability at 1 min, 20 µM came to 33.4 ± 4.3%.

For the molecule “KWKLFKKIGAVLKVLTTGHHHHHHYARAAARQARA [CM18-His-PTD4]”, the viability at 1 min, 20 µM in data set [1] (setting [3]) turned out to be 57.7 ± 4.2%. Take “HHHHHHKKALLALALHHLAHLALHLALALKKAYARAAARQARA [His-LAH4-PTD4]”: in data set [1] (HeLa, Protocol B, shuttle 50 μM, GFP-NLS 5 μM, 10 seconds, read-out: Cell viability (%) (±St. Dev.; n = 3), FIG. 29A), the viability at 10 s, 50 µM turned out to be 98 ± 1.5%.

Regarding “I: KWKLFKKIGAVLKVLTTGRQIKIWFQNRRMKWKKC / II: KWKLFKKIGAVLKVLTTGRQIKIWFQNRRMKWKKC (disulfide I:35-II:35) [dCM18-Penetratin-Cys]”, the viability at 1 h, 3.5 µM in data set [1] (HeLa) was determined as 74 ± 9%. Consider `CC(C)C[C@H](NC(=O)[C@H](CC(C)C)NC(=O)[C@H](CCCCN)NC(=O)[C@H](CCCCN)NC(=O)[C@H](CC(C)C)NC(=O)[C@H](CC(C)C)NC(=O)[C@H](CCCCN)NC(=O)[C@H](CCCCN)NC(=O)[C@H](CC(C)C)NC(=O)[C@H](CC(C)C)NC(=O)[C@@H](N)CS)C(=O)N[C@@H](CCCCN)C(=O)N[C@@H](CCCCN)C(=O)N[C@@H](CS)C(=O)O` [C(LLKK)3C, reference compound] (H-CLLKKLLKKLLKKC-OH), for which the viability at 10 s, 50 µM in data set [1] was determined as 61.8 ± 0.1%. Turning to `CC[C@H](C)[C@H](NC(=O)[C@H](CCCCN)NC(=O)[C@H](CCCCN)NC(=O)[C@H](Cc1ccccc1)NC(=O)[C@H](CC(C)C)NC(=O)[C@H](CCCCN)NC(=O)[C@H](Cc1c[nH]c2ccccc12)NC(=O)[C@H](CCCCN)NC(=O)[C@H](Cc1c[nH]cn1)NC(=O)[C@H](C)NC(=O)[C@H](Cc1c[nH]cn1)NC(=O)[C@H](Cc1c[nH]cn1)NC(=O)[C@H](C)NC(=O)[C@H](Cc1c[nH]cn1)NC(=O)[C@H](Cc1c[nH]cn1)NC(=O)[C@H](C)NC(=O)[C@@H](N)Cc1c[nH]cn1)C(=O)NCC(=O)N[C@@H](C)C(=O)N[C@H](C(=O)N[C@@H](CC(C)C)C(=O)N[C@@H](CCCCN)C(=O)N[C@H](C(=O)N[C@@H](CC(C)C)C(=O)N[C@H](C(=O)N[C@H](C(=O)NCC(=O)N[C@@H](Cc1ccc(O)cc1)C(=O)N[C@@H](C)C(=O)N[C@@H](CCCNC(=N)N)C(=O)N[C@@H](C)C(=O)N[C@@H](C)C(=O)N[C@@H](C)C(=O)N[C@@H](CCCNC(=N)N)C(=O)N[C@@H](CCC(N)=O)C(=O)N[C@@H](C)C(=O)N[C@@H](CCCNC(=N)N)C(=O)N[C@@H](C)C(=O)O)[C@@H](C)O)[C@@H](C)O)C(C)C)C(C)C` [3HA-CM18-PTD4], the viability at 1 min, 20 µM in data set [1] (setting [3]) came out at 43.6 ± 2.8%.
